In US6881719B2, “β-turn peptidomimetic cyclic compounds” (McGill University, priority 2000, dated 2005):

Columns and labels:
B104 cells = test: Cell survival control, B104 cells; type: cell-based, rat
Text: (§1) The 4-3.6 cells are B104 cells stably transfected with human trkA cDNA, and express equal levels of p75 and TrkA (TrkA+ p75+). For screening agents that activate or antagonize TrkC receptors, NIH3T3 fibroblasts were stably transfected with human TrkC cDNA. These cells respond to the ligand NT-3. For screening agents that activate or antagonize TrkA receptors, NIH3T3 fibroblasts were stably transfected with human TrkA cDNA. These cells respond to the ligand NGF.
(§2) Cell lines: 5,000 cells/well in protein-free media (PFHM-II, GIBCO, Toronto) containing 0.2% bovine serum albumin (BSA) (Crystalline fraction V, Sigma, St. Louis, Mo.) were seeded in 96 well plates (Falcon, Mississauga, Ontario). The cultures were untreated, or treated with the indicated test or control ligands. Cell viability was quantitated using the MTT assay after 56-72 hours of culture. […] The OD of untreated cells were subtracted. The higher optical density of untreated primary cultures is likely due to cellular heterogeneity and to endogenous production of limiting amounts of growth factors.

[1] = molecular target: T1, HEK 293 cells expressing TrkB/TrkA IgG-C2 chimeric receptor (Homo sapiens, UniProt P04629+Q16620); test: Cell survival (MTT), HEK 293-TrkB/TrkA IgG-C2 chimera; type: cell-based; details: HEK 293-TrkB/TrkA chimera, 72 hours;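 on % Protection: 100% equals survival with optimal NGF at 1 nM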
T1 construct: The IgG-C2 domain of human TrkA was generated using unique restriction sites; expressed in transfected cells
Text: The IgG-C2 domain of human TrkA was generated using unique restriction sites in the primers to allow exchange with the corresponding rat TrkB domain. The chimeric receptors were constructed by subcloning the human TrkA IgG-C2 domain into the corresponding restriction sites of the rat trkB cDNA reported in a previous work (Perez et al., 1995). Chimeric constructs were confirmed by sequencing, and were cloned into the pCDNA3 expression vector that contains a selection gene providing resistance to neomycin (G418, GIBCO). HEK293 cells were transfected using the lipofectamine plus method (GIBCO), selected with neomycin (0.5 mg/ml) and at least 3 independent subclones were obtained by limiting dilution techniques (293-TrkB/A-IgC2 chimera).
as §2, with “subtracted.” for “subtracted. The higher optical density of untreated primary cultures is likely due to cellular heterogeneity and to endogenous production of limiting amounts of growth factors.”

p75 NGF receptor subunit = molecular target: T2, p75 NGF receptor subunit (Rattus norvegicus, UniProt P07174); test: FACScan competition of anti-p75 mAb MC192 binding on 4-3.6 cells; details: mAb 1 nM; competitor 40 μM
T2 construct: B104 rat neuroblastomas express p75 receptors; endogenous in cells
Text: as §1
FACScan binding assays: 4-3.6 cells (2×10^5) in FACScan binding buffer (PBS, 0.5% BSA, and 0.1% NaN3) were immunostained as described (Saragovi et al., 1998). Saturating anti-TrkA mAb 5C3, or anti-p75 mAb MC192, or control non-binding IgGs were added to cells for 1 hour at 4° C., in the presence or absence of D3 as competitor. Excess primary antibody was washed off, and cells were immunostained with fluorescinated goat-anti-mouse IgG secondary antibody. Cells were acquired on a FACScan and mean channel fluorescence of bell-shaped histograms were analyzed using the LYSIS II program.

wild type HEK293 cells = test: Cell survival control, wild type HEK293 cells; type: cell-based
Method: as §2

[2] = molecular target: T3, NIH3T3 fibroblasts expressing TrkC (Homo sapiens, UniProt Q16288); test: Cell survival (MTT), NIH-TrkC; type: cell-based; details: for NIH-TrkC % Protection: 72 hours
T3 construct: expressed in transfected cells; host or cells: NIH3T3 fibroblasts
Text: as §1, §2

[3] = test system: embryonic rat DRG primary neuronal cultures; test: Cell survival (MTT), primary DRG cultures; type: cell-based; details: 8 days;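 on % Protection: 100% equals survival with optimal NGF at 1 nM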
Method: Fetal rat DRG primary cultures were established from Sprague Dawley day 17 rat embryos. All ganglia were dissected and dissociated first enzymatically with trypsin and then mechanically. Dissociated cells were cultured (10^5 cells/well) in 96 well plates pre-coated with collagen, and grown for a total of 8 days in Neuro Basal Medium containing N2 supplement (GIBCO, Toronto), antibiotics, and L-glutamine. These DRG cultures are ˜85% TrkA-expressing and are heavily dependent on TrkA signals for survival.
Primary DRG cultures: After a total of 8 days of culture with the indicated test or control ligands, cell survival were studied using the 3(4,5-Dimethylthiazolyl-2)-2,5-diphenyl tetrazolium bromide colorimetric (MTT) assay, and by microscopic observation.
as §2

TrkA-ECD = molecular target: T4, TrkA-ECD (Homo sapiens, UniProt P04629); test: ELISA competition of mAb 5C3 binding to immobilized TrkA-ECD; details: for % Binding of mAb 5C3 to TrkA-ECD: mAb 5C3 2 nM
T4 construct: pure soluble TrkA extracellular domain (TrkA-ECD) produced in baculovirus; made in house
Method: Direct binding studies: were done as described (Saragovi et al., 1998) using 6 ng/well of recombinant baculovirus TrkA-extracellular domain protein (TrkA-ECD) or control bovine serum albumin (BSA, Fraction V, Boehringer Mannheim) immobilized onto 96-well microtest plates. Wells were blocked with binding buffer (BB: PBS with 1% BSA) for 1 hour. Then, 50 ng/well of biotinylated D3 were added as primary reagent in BB for 40 min in the absence or presence of excess non-biotinylated D3 as competitor. Wells were washed 5 times with BB, and horseradish peroxidase (HRP)-coupled avidin (Sigma) was added as secondary reagent for 30 min. Plates were washed in BB, and peroxidase activity was determined colorimetrically using 2,2-azinobis (3-ethylbenzthiazoline sulfonic acid) (ABTS, Sigma). The optical density (OD) was measured at 414 nm in a Microplate reader (Bio-Rad). Assays were repeated at least three times, n=4.
Binding Competition: studies were as described for direct binding assays to TrkA-ECD, except that as primary reagent 50 ng anti-TrkA mAb 5C3/well were added in BB, in the presence or absence of D3 or controls as competitors as described (Saragovi et al., 1998). Wells were washed 5 times with BB, and HRP-coupled goat anti-mouse was added as secondary reagent for 30 min. Plates were washed in BB, and peroxidase activity were determined. Assays were repeated at least three times, n=4.

T3 sequence (Q16288 32-839): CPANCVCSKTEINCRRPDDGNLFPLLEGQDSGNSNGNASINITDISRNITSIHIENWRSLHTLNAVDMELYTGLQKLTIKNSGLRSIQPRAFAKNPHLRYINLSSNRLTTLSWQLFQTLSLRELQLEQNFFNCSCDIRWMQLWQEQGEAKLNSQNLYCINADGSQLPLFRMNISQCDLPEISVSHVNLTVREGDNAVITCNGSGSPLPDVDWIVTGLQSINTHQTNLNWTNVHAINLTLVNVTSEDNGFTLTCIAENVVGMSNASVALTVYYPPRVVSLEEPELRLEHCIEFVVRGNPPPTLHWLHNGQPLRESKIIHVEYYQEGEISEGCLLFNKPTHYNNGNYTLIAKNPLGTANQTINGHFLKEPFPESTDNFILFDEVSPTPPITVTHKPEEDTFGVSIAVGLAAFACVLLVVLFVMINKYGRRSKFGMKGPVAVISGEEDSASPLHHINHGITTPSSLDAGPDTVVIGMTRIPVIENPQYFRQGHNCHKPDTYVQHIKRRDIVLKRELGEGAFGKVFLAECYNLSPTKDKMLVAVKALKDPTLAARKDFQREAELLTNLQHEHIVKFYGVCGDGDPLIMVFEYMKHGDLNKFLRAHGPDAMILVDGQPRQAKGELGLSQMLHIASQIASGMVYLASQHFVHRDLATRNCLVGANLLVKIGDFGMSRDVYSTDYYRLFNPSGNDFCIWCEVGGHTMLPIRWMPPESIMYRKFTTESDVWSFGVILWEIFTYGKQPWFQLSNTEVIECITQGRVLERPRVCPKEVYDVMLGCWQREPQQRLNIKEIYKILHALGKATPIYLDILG
T1 sequence (P04629 299-365 limits assumed, change not shown, one chain of several): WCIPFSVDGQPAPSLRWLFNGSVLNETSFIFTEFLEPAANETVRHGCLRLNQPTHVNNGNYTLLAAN
T4 sequence (P04629 33-423 limits assumed): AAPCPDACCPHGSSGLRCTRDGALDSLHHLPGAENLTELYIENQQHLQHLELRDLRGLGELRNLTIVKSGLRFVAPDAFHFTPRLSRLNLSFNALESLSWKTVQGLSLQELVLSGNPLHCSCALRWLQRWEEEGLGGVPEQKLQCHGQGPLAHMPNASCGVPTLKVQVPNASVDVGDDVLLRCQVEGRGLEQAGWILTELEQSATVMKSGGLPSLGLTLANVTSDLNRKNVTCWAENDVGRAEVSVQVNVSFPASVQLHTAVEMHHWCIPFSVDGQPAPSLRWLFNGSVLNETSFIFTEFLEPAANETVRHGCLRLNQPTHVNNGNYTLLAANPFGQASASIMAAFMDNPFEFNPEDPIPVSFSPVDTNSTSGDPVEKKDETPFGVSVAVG
T2 sequence (P07174 30-425): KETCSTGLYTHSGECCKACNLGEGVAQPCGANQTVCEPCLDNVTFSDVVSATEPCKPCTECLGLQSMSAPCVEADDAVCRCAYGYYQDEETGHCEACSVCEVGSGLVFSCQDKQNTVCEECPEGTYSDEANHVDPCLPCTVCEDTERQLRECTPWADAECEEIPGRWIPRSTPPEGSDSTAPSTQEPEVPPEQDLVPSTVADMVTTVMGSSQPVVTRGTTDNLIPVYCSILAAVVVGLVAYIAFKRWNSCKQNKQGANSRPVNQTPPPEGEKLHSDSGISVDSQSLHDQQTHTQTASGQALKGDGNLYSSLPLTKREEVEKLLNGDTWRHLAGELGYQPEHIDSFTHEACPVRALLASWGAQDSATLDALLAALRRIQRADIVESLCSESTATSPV

With `NCCCC[C@@H]1NC(=O)[C@H](CCC(=O)O)NC(=O)c2cc([N+](=O)[O-])ccc2OCCC(C(=O)NCC(=O)O)NC1=O` (stereo partly shown) [D3, EKHse-G-OH] the protection from apoptosis (B104 cells) was “neither D3 nor NGF protected”, the “% Protection” value ([1]; compound 10 μM + 10 pM NGF) was 42 ± 5% and the “Optical Density” value ([1]; compound 10 μM + 10 pM NGF) was 165 ± 11. The “% Protection” value ([1]; compound 10 μM alone) was 9 ± 3%, the “Optical Density” value ([1]; compound 10 μM alone) was 69 ± 7 and the “% Maximal binding of mAb MC192” value (p75 NGF receptor subunit) was 101 ± 2%. The protection from apoptosis (wild type HEK293 cells) was “neither D3 nor NGF protected”, the “enhancement of NT-3 protection” value ([2]; NIH3T3 cells stably transfected with trkC cDNA) was “did not enhance NT-3 protection” and the “NIH-TrkC % Protection” value ([2]; agent 10 μM + 10 pM NGF) was 6 ± 2%. For the same compound, the “NIH-TrkC % Protection” value ([2]; agent 10 μM alone) was 3 ± 3%, the “% Protection” value ([3]; compound 10 μM + NGF 20 pM) was 48 ± 3% and the “Optical Density” value ([3]; compound 10 μM + NGF 20 pM) was 471 ± 28. The “% Protection” value ([3]; compound 10 μM + NGF 500 pM) was 84 ± 3%, the “Optical Density” value ([3]; compound 10 μM + NGF 500 pM) was 603 ± 26 and the “% Protection” value ([3]; compound 10 μM + NGF 1 nM) was 120 ± 7%. For the same compound, the “Optical Density” value ([3]; compound 10 μM + NGF 1 nM) was 977 ± 38, the “% Protection” value ([3]; compound 10 μM alone) was 38 ± 2% and the “Optical Density” value ([3]; compound 10 μM alone) was 405 ± 22. For the same compound, the Kd (TrkA-ECD; calculated from the experimental IC50, read-out: Kd for D3•TrkA-ECD interactions) was ~2000 nM, the “% Binding of mAb 5C3 to TrkA-ECD” value (TrkA-ECD; competitor 0.05 μM) was 100 ± 14% and the “% Binding of mAb 5C3 to TrkA-ECD” value (TrkA-ECD; competitor 0.2 μM) was 89 ± 8%. For the same compound, the “% Binding of mAb 5C3 to TrkA-ECD” value (TrkA-ECD; competitor 1 μM) was 64 ± 10%, the “% Binding of mAb 5C3 to TrkA-ECD” value (TrkA-ECD; competitor 5 μM) was 43 ± 12% and the “% Binding of mAb 5C3 to TrkA-ECD” value (TrkA-ECD; competitor 20 μM) was 38 ± 7%. The “% Binding of mAb 5C3 to TrkA-ECD” value (TrkA-ECD; competitor 40 μM) was 31 ± 4%.
